Assay results reported in US20150018380A1, “Methods of Screening for Activation Deaminase Inhibitors Through Nuclear Import Inhibitors” (University of Rochester, priority 2012, published 2015).
Entries after “also recorded” stand apart in the source; their conditions may differ. Like-named read-outs stand apart in the source and are kept apart here.

How the values were obtained:
[1] = target: T1, AID (Homo sapiens, UniProt Q9GZX7); test: AID-EGFP-HeLa HCS assay LOPAC screen for inhibitors of AID nuclear import; format: cell-based
T1 construct: expressed in transfected cells; host or cells: HeLa S3 (lentiviral transduction, pLVTHM, EF1-alpha promoter)
T1 sequence (Q9GZX7 whole entry): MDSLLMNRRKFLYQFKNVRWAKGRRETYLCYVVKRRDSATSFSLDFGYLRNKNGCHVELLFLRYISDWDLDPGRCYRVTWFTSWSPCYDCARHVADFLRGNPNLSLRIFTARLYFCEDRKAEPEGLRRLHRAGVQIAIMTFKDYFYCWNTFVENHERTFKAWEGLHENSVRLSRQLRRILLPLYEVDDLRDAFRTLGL
Description: The LOPAC screen was performed using 20 μM of each compound in duplicate with a 3-hour incubation followed by LMB treatment.
Maximum values, set to 100% corresponds to conditions of DMSO treated cells. Minimum values, set approximately to 0%, corresponds to conditions of only 200 ng/mL LMB treatment.

[2] = tested on: glucocorticoid receptor; conditions: prior screen, cited from earlier work
[3] = tested on: AID-EGFP; test: LMB / Ratjadone A response of AID-EGFP in stable HeLa AID-EGFP cells; format: cell-based, human; conditions: for AID-EGFP localization / nuclear retention: 100 ng/ml for 180 min
From the text: HCS assay development involves the selection of the most appropriate cellular model (Dudgeon et al., 2010, J. Biomol. Screen, 15: 766-782; Nickischer et al., 2006, Methods Enzymol, 414: 389-418; Williams et al., 2006, Methods Enzymol, 414: 364-89). In this regard, AID shuttling is not specific to B cells, making it possible to use a variety of cell types to study AID structure and function (Okazaki et al., 2002, Nature, 416: 340-5; Yoshikawa et al., 2002 Science, 296: 2033-6). However, the ability of LMB to induce quantitative AID nuclear retention was more uniform in HeLa cells (a finding has been independently confirmed by comparing the AID responses to LMB in transiently transfected HeLa, HEK293T, U2OS, A549, CaCo2, HepG2 and CHO cells). […] Consequently, AID-EGFP was subcloned from a pIRES vector into the lentiviral vector pLVTHM (Addgene) using the EF1-α promoter to drive moderate to low level expression. pLV-AID-EGFP psuedotyped virus was transduced into HeLa S3 cells (ATCC) that were live-cell flow sorted to obtain a homogenous population of fluorescent cells. Subcloning of a cell line was not thought to be necessary given the ability to threshold fluorescence in individual cells during high content screening. These cells have been maintained in culture with little or no loss of fluorescence for 2 months. HeLa AID-EGFP cells plated into 384-well plates at varying cell densities (1,250 to 10,000 cells per well) were simultaneously fixed with formaldehyde and counter stained with Hoechst and then imaged using both the IXU Ultra and ArrayScan VTI platforms with 10× and 20× objectives. Image quantification was performed with the multi-wavelength cell scoring (MWCS) & translocation enhanced (TE) image analysis modules and the molecular translocation (MT) image algorithm for the IXU Ultra and ArrayScan VTI, respectively. Based on image acquisition, 2,500 cells per well was determined ideal for either platform regardless of the objective. […] To establish the LMB response within the context of an HCS system and assess the assay parameters, cells were treated in 384-well format with varying doses (0.2 to 200 ng/ml) of either LMB or Ratjadone A (chemically related to LMB) for varying durations up to 200 min. […] There was a 4.5-fold difference between the nuclear to cytoplasmic (N/C) fluorescence ratio of LMB-treated cells and cells only treated with the solvent for LMB (0.5% methanol).
For the LOPAC high content screen (HCS), 2,500 AID-EGFP-HeLa cells were cultured per well on a 384-well plate. Cells were seeded and cultured overnight. Cells were exposed to 20 μM of test compound for 3 hours, followed by a 200 ng/mL LMB treatment for 3 hours. Experiments were run in duplicate. […]

[4] = tested on: AID-EGFP; test: LMB response in HEK293T cells transiently co-transfected with AID-EGFP and mCherry-H1: AID; format: cell-based, human
Description: (§1) HEK293T cells in 40 μl were plated robotically into 384-well plates using a Multi-Drop (ThermoScientific) such that in 24 hours the cell density is approximately 60% confluency. EGFP-AID and mCherry-H1 plasmids were mixed at a 1:1 molar ratio in Turbofect reagent as per the manufacture's protocol (Fermentas) and dispensed from a trough into the 384-well HEK293T cell cultures with a Perkin Elmer Janus robot liquid handling system. Each well received 25 ng of total plasmid DNA and uniform dispersal of the transfection mixture was ensured by placing the plates on the Perkin Elmer plate mixer at the highest speed setting for 30 sec. Due to the small culture volume, there was no effect on cell attachment to the plates but was critical for uniform transfection. Ranges of both EGFP-AID: mCherry-H1 plasmid ratios and amount of total plasmid DNA required for transfection of cells in 384-well format were evaluated. For current plasmid stocks, a 1:1 plasmid ratio gave the most consistent expression of both proteins.
(§2) Co-expression of other counter screen proteins and their response to LMB was evaluated using co-transfected HEK293T cells. […]

[5] = tested on: histone H1; test: LMB response in HEK293T cells transiently co-transfected with AID-EGFP and mCherry-H1: H1; format: cell-based, human; conditions: LMB treatment
Description: as §1, §2

[6] = tested on: ACF; test: LMB response in HEK293T cells transiently cotransfected with ACF-EGFP and mCherry-hnRNPA1: ACF; format: cell-based, human; conditions: LMB treatment; transiently transfected HEK293T
From the text: (§3) Wild type human ACF, hnRNP A1, and TALDO1 cDNAs are obtained from BlueHeron (NM_014576.2, NM_002136.2 and NM_006755.1) cDNAs for ACF and A1 were subcloned into pGEM3 and pIRES, respectively. Criteria used for transient transfection, validating protein expression and determining appropriate N/C ratio baselines are described elsewhere herein. Two counter screens for shuttling proteins, run in parallel enable the identification of AID-selective nuclear import inhibitors.
(§4) Data presented herein show images from HEK293T cells 24 hr after being transiently cotransfected with ACF-EGFP and mCherry-hnRNPA1. FIG. 5G through FIG. 5I show images from a 384-well plate for EGFP-ACF, mCherry-hnRNPA1 and two color composite respectively. […] ACF and hnRNP A1 are selected because they shuttle using different mechanism than AID and because their function in the cell differs markedly from one another and from AID and H1. ACF binds to RNA through RNP domains that comprise three separate and centrally located RNA Recognition Motifs (RRM), required for ACF's function as an editing site recognition cofactor for APOBEC1 mRNA editing activity in the cell nucleus (Hintersteiner et al., 2010, ACS Chem Biol, 5(10): 967-79). […] ACF nuclear import is determined by a unique amino acid motif centrally located and a Cterminal, CRM1-dependent nuclear export signal (Chahine et al., 2009, Pharmacol Rev, 61(3): 358-72).

[7] = tested on: hnRNP A1; test: LMB response in HEK293T cells transiently cotransfected with ACF-EGFP and mCherry-hnRNPA1: hnRNP A1; format: cell-based, human; conditions: LMB treatment; transiently transfected HEK293T
From the text: as §3, §4

[8] = tested on: AID-EGFP; test: LMB response in 293T cells transiently co-transfected with AID-EGFP and mCherry-TALDO1: AID; format: cell-based, human; conditions: LMB treatment; 293T co-transfected with mCherry-TALDO1
Description: (§5) TALDO1 in pIRES was transiently co-transfected with AID-EGFP in 293T cells and fluorescence images taken 24 hours post-transfection. AID-EGFP was predominantly cytoplasmic while mCherry-TALDO1 was predominantly nuclear (FIG. 5P through FIG. 5R). […] It is concluded that co-expression of AID and TALDO1 is achievable and that the proteins have different N/C ratios even though they use the same importins.

[9] = tested on: TALDO1; test: LMB response in 293T cells transiently co-transfected with AID-EGFP and mCherry-TALDO1: TALDO1; format: cell-based, human; conditions: LMB treatment; 293T co-transfected with AID-EGFP
Description: as §5

[10] = tested on: AID-EGFP; test: LMB response in HeLa cell line stably expressing AID-EGFP and mCherry-TALDO1: AID; format: cell-based, human; conditions: LMB treatment; stable HeLa AID-EGFP/mCherry-TALDO1
From the text: (§6) A HeLa cell line stably expressing equivalent levels of AID-EGFP and mCherry-TALDO1 was established by transducing cells with a lentiviral vector encoding AID-EGFP. mCherry-TALDO1 was transfected/selected after the AID-EGFP line was sorted and selected. The cell line was then sorted for the co-expression of both proteins.
(§7) FIG. 23 depicts the expression of AID-EGFP and mCherry-TALDO1, as measured by flow cytometry (FIG. 23A) and western blot (FIG. 23B). […] FIG. 24 depicts the localization of AID-EGFP and mCherry-TALDO1 in control treated cells and LMB treated cells. […] This cell line is then used in a simultaneous primary/counter screen for compounds that selectively alter AID import, while not affecting TALDO1 localization.

[11] = tested on: mCherry-TALDO1; test: LMB response in HeLa cell line stably expressing AID-EGFP and mCherry-TALDO1: TALDO1; format: cell-based, human; conditions: LMB treatment; stable HeLa AID-EGFP/mCherry-TALDO1
From the text: as §6, §7

[12] = target: CRM1 (Homo sapiens, UniProt O14980); conditions: cited from earlier work
Sequence of CRM1 (O14980 whole entry): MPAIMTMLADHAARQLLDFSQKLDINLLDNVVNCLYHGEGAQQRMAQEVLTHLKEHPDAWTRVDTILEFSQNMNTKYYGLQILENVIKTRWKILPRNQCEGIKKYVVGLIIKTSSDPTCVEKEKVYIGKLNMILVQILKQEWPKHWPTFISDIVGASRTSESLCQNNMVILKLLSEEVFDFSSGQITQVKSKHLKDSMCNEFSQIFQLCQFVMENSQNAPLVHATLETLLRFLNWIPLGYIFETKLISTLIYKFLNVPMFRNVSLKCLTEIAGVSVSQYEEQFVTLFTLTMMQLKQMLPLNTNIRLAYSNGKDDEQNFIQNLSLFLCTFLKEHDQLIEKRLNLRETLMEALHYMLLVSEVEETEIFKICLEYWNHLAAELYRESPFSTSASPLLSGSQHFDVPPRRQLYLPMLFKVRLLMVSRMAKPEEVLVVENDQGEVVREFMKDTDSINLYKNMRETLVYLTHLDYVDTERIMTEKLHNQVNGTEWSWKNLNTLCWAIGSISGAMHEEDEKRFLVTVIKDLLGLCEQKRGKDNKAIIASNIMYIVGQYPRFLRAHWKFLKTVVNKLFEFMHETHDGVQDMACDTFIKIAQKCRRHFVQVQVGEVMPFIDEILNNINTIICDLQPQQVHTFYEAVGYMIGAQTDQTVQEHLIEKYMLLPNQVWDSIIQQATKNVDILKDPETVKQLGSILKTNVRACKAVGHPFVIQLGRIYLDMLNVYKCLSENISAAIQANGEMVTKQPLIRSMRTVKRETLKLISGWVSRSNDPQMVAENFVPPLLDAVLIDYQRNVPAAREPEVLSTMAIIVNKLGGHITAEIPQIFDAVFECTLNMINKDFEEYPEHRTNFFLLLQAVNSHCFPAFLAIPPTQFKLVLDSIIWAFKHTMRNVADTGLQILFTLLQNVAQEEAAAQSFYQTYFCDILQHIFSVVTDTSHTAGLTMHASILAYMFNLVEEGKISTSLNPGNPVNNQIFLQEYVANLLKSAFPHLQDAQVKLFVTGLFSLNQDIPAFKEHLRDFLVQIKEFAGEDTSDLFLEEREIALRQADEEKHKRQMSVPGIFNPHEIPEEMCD

[13] = 20 μM compound for 3 hours, then 200 ng/mL LMB for 3 hours, AID-EGFP-HeLa cells, 2,500 cells/well, duplicate

In the case of `CC(C)(C)c1ccc(S(=O)(=O)/C=C/C#N)cc1` [Bay 11-7085], the “inhibition of AID nuclear import” value [1, 13] is given as “greater than 50%”, the “nuclear import of the glucocorticoid receptor” value [2] is given as “inhibit the nuclear import of the glucocorticoid receptor” and the “nuclear import of the glucocorticoid receptor” value ([2]; listed as SID 53777289) is given as “inhibited nuclear import of the glucocorticoid receptor”.
For `Cc1c2ccncc2c(C)c2c1[nH]c1ccccc12` [Ellipticine], the inhibition at 20 µM [1, 13] was greater than 50%.
In the case of `CCC(=C/[C@H](C)C/C=C/C(C)=C/[C@@H](C)C(=O)[C@@H](C)[C@H](O)[C@@H](C)C/C(C)=C/C(=O)O)/C=C/[C@@H]1OC(=O)C=C[C@@H]1C` [LMB, Leptomycin B], the “AID-EGFP localization / nuclear retention” value ([3]; HeLa AID-EGFP cells) is reported as “maximal nuclear retention of AID-EGFP; also recorded: nuclear AID-EGFP localization”, the “nuclear localization of AID-EGFP” value ([3]; 200 ng/mL LMB for 3 hours, control AID-EGFP-HeLa cells without test compound) is reported as “approximately 80%” and the “difference in nuclear to cytoplasmic (N/C) fluorescence ratio versus solvent (0.5% methanol) treated cells” value ([3]; HeLa AID-EGFP cells, 384-well) is reported as 4.5 fold. For the same compound, the AID-EGFP nuclear retention ([4]; 50 ng/ml LMB for 90 min, transiently transfected HEK293T) was “increased retention in their nuclei; also recorded: selective redistribution of AID-EGFP”, the “effect of increasing LMB above 50 ng/ml on EGFP-AID retained in the nucleus” value ([4]; transient system, HEK293T) was “did not increase the amount of EGFP-AID retained in the nucleus” and the “histone H1 localization” value [5] was “remained nuclear; also recorded: do not affect H1 nuclear localization”. The ACF localization [6] was “nuclear retention of ACF; also recorded: redistribution of ACF-EGFP”, the “hnRNP A1 localization” value [7] was “does not respond” and the AID-EGFP nuclear retention [8] was “significant nuclear retention of AID-EGFP; also recorded: selective redistribution of AID-EGFP”. For the same compound, the “nuclear mCherry fluorescence due to TALDO1” value [9] was “did not noticeably affect”, the AID-EGFP localization [10] was “shift localization from primarily cytoplasmic to primarily nuclear” and the mCherry-TALDO1 localization [11] was “remained nuclear”. The “CRM1-mediated nuclear export of AID” value [12] was “inhibited”.
For `Cl.Cl.O=C1c2c(O)ccc(O)c2C(=O)c2c(NCCNCCO)ccc(NCCNCCO)c21` [M6545], the “fluorescence interference (false positive hit)” value ([1]; LOPAC screen, 20 μM) was “false positive autofluorescent”.
In the case of `O=C1c2c(O)ccc(O)c2C(=O)c2c(NCCNCCO)ccc(NCCNCCO)c21` [Mitoxantrone], the inhibition at 20 µM [1, 13] is reported as greater than 50%.
`CN(C)S(=O)(=O)c1ccc2c(c1)/C(=C/c1cc3c([nH]1)CCCC3)C(=O)N2` [SU 6656] gave an inhibition at 20 µM [1, 13] greater than 50%.
In the case of Ratjadone A, the “AID-EGFP localization / nuclear retention” value ([3]; HeLa AID-EGFP cells) is reported as “maximal nuclear retention of AID-EGFP; also recorded: nuclear AID-EGFP localization”.
